Key:
[1] = tested on: LX-2 cells (human hepatic stellate cells); assay: Expression of marker genes for fibrosing in LX-2 cells (quantitative real time PCR); format: cell-based; conditions: 5 μM, co-cultured 48 hours, vs DMSO, standardized by GAPDH, FIG. 1
Experimental: LX-2 cells (human hepatic stellate cells) (sigma-aldrich, reference document: Gut 2005, 54 (1), 142-151) were seeded in 12-well tissue culture plates (5×10^4 cells/well) and cultured in Dulbecco's Modified Eagle's Medium (high glucose) (Thermo Fisher Scientific) together with 10% FBS (Fetal Bovine Serum) and 100× penicillin-streptomycin-glutamine (PSG) in a 5% CO2 humidified incubator at 37° C. After 48 hours, the cells were stimulated with dimethyl sulfoxide (DMSO), Compound (II), and Compound (III) (5 μM) (final concentration of DMSO was 0.02%) and co-cultured for another 48 hours. Thereafter, the cells were lysed using a lysis buffer (MACHEREY-NAGEL GmbH & Co. KG).
(§1) Total RNA of LX-2 cells was extracted using NucleoSpin RNA Plus kit (Takara Bio) according to the product protocol. Purified RNA was reverse transcribed using High-Capacity cDNA RT Kits (Thermo Fisher Scientific) according to the product protocol. PCR was performed using TB Green Premix Ex Taq II (Takara Bio) and monitored with a LightCycler96 (Roche Life Science). The number of transcripts was standardized by the number of GAPDHs, which are housekeeping genes.

[2] = tested on: primary cultured human lung fibroblasts; assay: Expression of marker genes for fibrosing in primary cultured human lung fibroblasts (quantitative real time PCR); format: cell-based; conditions: 48 hours
Experimental: (§2) Primary cultured human renal fibroblasts (ATCC), primary cultured human lung fibroblasts (Cosmo Bio), or primary cultured human pancreatic fibroblasts (K.A.C.) were each seeded in 12-well tissue culture plates (5×10^4 cells/well) and cultured in Minimum Essential Medium (lx) (Gibco, Thermo Fisher Scientific) together with 10% FBS (Fetal Bovine Serum) and 100× antifungal antibiotic solution (Sigma-Aldrich) in a 5% CO2 humidified incubator at 37° C. After 48 hours, the cells were stimulated with dimethyl sulfoxide (DMSO), Compound (II), and/or Compound (III) (5 μM) (final concentration of DMSO was 0.02%) and co-cultured for another 48 hours. Cells that are activated by TGFβ1 (FUJIFILM Wako Pure Chemical Corporation), a fibroblast growth and activation factor, were stimulated with TGFβ1 (20 ng/ml) 72 hours after seeding, and after 48 hours, the cells were stimulated with dimethyl sulfoxide (DMSO), Compound (II), and/or Compound (III) (5 μM) (final concentration of DMSO was 0.02%) and co-cultured for another 48 hours. Thereafter, the cells were lysed using a lysis buffer (MACHEREY-NAGEL GmbH & Co. KG).
(§3) Quantitative real-time PCR analysis was performed in the same manner as in Example 5.

[3] = tested on: primary cultured human renal fibroblasts; assay: Expression of marker genes for fibrosing in primary cultured human renal fibroblasts (quantitative real time PCR); format: cell-based; conditions: 48 hours
Experimental: as §2, §3

[4] = tested on: primary cultured human pancreatic fibroblasts; assay: Expression of marker genes for fibrosing in primary cultured human pancreatic fibroblasts (quantitative real time PCR); format: cell-based; conditions: 48 hours
Experimental: as §2, §3

[5] = tested on: primary cultured human skin fibroblasts; assay: Expression of marker genes for fibrosing in primary cultured human skin fibroblasts (quantitative real time PCR); format: cell-based; conditions: 48 hours
Experimental: Primary cultured human skin fibroblasts (Tokyo University School of Medicine) were seeded in 12-well tissue culture plates (7×10^4 cells/well) and cultured in Dulbecco's Modified Eagle's Medium (high glucose) together with 10% FBS (Fetal Bovine Serum) and 100× penicillin-streptomycin-glutamine (PSG) in a 5% CO2 humidified incubator at 37° C. After 48 hours, the cells were stimulated with dimethyl sulfoxide (DMSO), Compound (II), and Compound (III) (5 μM) (final concentration of DMSO was 0.02%) and co-cultured for another 48 hours. Cells activated with TGFβ1 (FUJIFILM Wako Pure Chemical Corporation) were stimulated with TGFβ1 (20 ng/ml) 72 hours after seeding, and after 48 hours, the cells were stimulated with dimethyl sulfoxide (DMSO), Compound (II), and Compound (III) (5 μM) (final concentration of DMSO was 0.02%) and co-cultured for another 48 hours. Thereafter, the cells were lysed using a lysis buffer (MACHEREY-NAGEL GmbH & Co. KG).
as §3

[6] = tested on: quiescent hepatic stellate cell-like cells (qHSC-like cells); assay: Expression of marker genes for fibrosing in quiescent hepatic stellate cell-like cells derived from human iPS cells (quantitative real time PCR); format: cell-based; conditions: 1 or 2 μM, 4 hours of incubation, FIG. 3
Experimental: Quiescent hepatic stellate cell-like cells (qHSC-like cells) were induced by the methods described in Koui et al., Stem Cell Reports 2021, PCT/JP2020/006147, and PCT/JP2016/58411. qHSC-like cells derived from ACTA2-RFP […] iPS cells were seeded in a collagen-coated 12-well plate at a density of 7×10^4 cells/well in Stempro-34 SFM medium (Gibco medium, theromo Fisher) supplemented with Y27632 (10 μM) and 100×PSG. After 24 hours of culture, Compound (II) was dissolved in Stempro-34 SFM medium (100×PSG), and then the solution was added such that the final concentration of Compound (II) was 1 or 2 μM. After 4 hours of incubation, the cells were lysed, and total RNA was extracted using NucleoSpin RNA Plus kit (Takara Bio).
as §1, with “derived from iPS cell-derived qHSC” for “of LX-2 cells”

LX-2 cells = assay: Immunostaining of αSMA and CollagenI in LX-2 cells; format: cell-based, human; conditions: 3 μM, vs DMSO group, FIG. 2
Experimental: LX-2 cells were cultured in the same manner as in Example 1, except that the concentration of Compound (II) was changed to 3 μM.
LX-2 cells were fixed in Mildform (registered trademark) 10N (FUJIFILM Wako Pure Chemical Corporation) at room temperature for 10 minutes and washed with PBS. Membranes were permeabilized using 0.2% Triton X-100. The cells were blocked at room temperature for one hour using 5% skim milk or 0.3% BSA/PBS. After washing with PBS, αSMA (Dako), CollagenI (Abcam), and Hoechst33342 (Sigma-Aldrich) were each added as a first antibody, and the mixture was reacted overnight at 4° C. On the next day, the cells were washed with PBS and then reacted with Invitrogen Alexa Fluor (theromo Fisher) as a second antibody. The cells were observed under a fluorescence microscope (Keyence BZ-X810).

[7] = tested on: mouse model of liver fibrosis; assay: Mouse model of liver fibrosis (thioacetamide): liver immunohistochemistry and quantitative real time PCR; format: in vivo, C57BL/6J mice; conditions: TAA mouse, 20 mg/kg subcutaneously every 24 hours for 14 days
Experimental: Seven-week-old C57BL/6J mice were purchased from CLEA Japan, Inc. (Tokyo, Japan). All animals were reared in a standard specific pathogen-free room in the animal facility of the Institute for Quantitative Biosciences, University of Tokyo. For a mouse model of liver fibrosis, thioacetamide (TAA) was administered together with drinking water (0.06% v/v), starting 7 weeks before the administration of the compound. After 7 weeks of rearing with TAA-containing water, a vehicle (200 μL of PBS, containing 5% DMSO) or 20 mg/kg (200 μL of PBS, containing 5% DMSO) of Compound (II) was subcutaneously administered every 24 hours for a total period of 14 days. The mice were sacrificed 24 hours after the last injection.
Liver tissue samples were fixed overnight at 4° C. with Zamboni's fixative (FUJIFILM Wako Pure Chemical Corporation) or Mildform (registered trademark) 10N (FUJIFILM Wako Pure Chemical Corporation). For immunofluorescence staining, the liver tissue fixed with Zamboni's fixative was washed with PBS, and the medium was replaced with a 30% (w/v) sucrose solution. Frozen tissue was prepared by embedding the tissue in a Tissue-Tek (registered trademark) O.C.T. compound (Sakura Finetek Japan) and freezing the resultant in liquid nitrogen. Liver cryosections (8 μm) were mounted on slide glasses, rehydrated, and autoclaved in Target Retrieval Solution (lx, Dako) at 90° C. for 20 min for epitope retrieval. The sections were blocked with 0.3% BSA/PBS for 1 hour at room temperature. After washing with PBS, αSMA (Dako), CollagenI (Bio-Rad Laboratories, Inc.), Ki67 (Santa Cruz), and Hoechst33342 (Sigma-Aldrich) were each added as a first antibody, and the mixture was reacted overnight at 4° C. On the next day, the sections were washed with PBS and then reacted with Invitrogen Alexa Fluor (theromo Fisher) as a second antibody. The section specimens were hermetically sealed and observed with a fluorescence microscope (Keyence BZ-X810). The range of positive CollagenI was quantified using Ratiocollagen I=Areacollagen I/Areatotal.
as §1, with “mouse liver tissue” for “LX-2 cells”

[8] = not stimulated with TGFβ1, 5 μM, FIG. 9
[9] = stimulated with TGFβ1 (20 ng/ml), 5 μM, FIG. 10
[10] = not stimulated with TGFβ1, 5 μM, FIG. 7
[11] = stimulated with TGFβ1 (20 ng/ml), 5 μM, FIG. 8
[12] = not stimulated with TGFβ1, 5 μM, FIG. 11
[13] = stimulated with TGFβ1 (20 ng/ml), 5 μM, FIG. 12
[14] = not stimulated with TGFβ1, 5 μM, FIG. 13
[15] = stimulated with TGFβ1 (20 ng/ml), 5 μM, FIG. 14

Compound | expression levels of the marker genes for fibrosing (ACTA2, COL1A1, COL3A1) [1] | expression levels of the marker genes for fibrosing (ACTA2, COL1A1, COL3A1) [2, 8] | expression levels of the marker genes for fibrosing (ACTA2, COL1A1, COL3A1) [2, 9] | expression levels of the marker genes for fibrosing (ACTA2, COL1A1, COL3A1) [3, 10] | expression levels of the marker genes for fibrosing (ACTA2, COL1A1, COL3A1) [3, 11] | expression levels of the marker genes for fibrosing (ACTA2, COL1A1, COL3A1) [4, 12] | expression levels of the marker genes for fibrosing (ACTA2, COL1A1, COL3A1) [4, 13] | expression levels of the marker genes for fibrosing (ACTA2, COL1A1, COL3A1) [5, 14] | expression levels of the marker genes for fibrosing (ACTA2, COL1A1, COL3A1) [5, 15] | expression levels of the marker genes for fibrosing (ACTA2, COL1A1, COL3A1) [6] | expression of αSMA and CollagenI (immunostaining) (LX-2 cells) | positive range of CollagenI in liver tissue sections (Area collagen I/Area total) ([7]; vs vehicle, FIG. 4) | Ki67 staining of liver tissue sections (cell proliferation capability) ([7]; vs vehicle, FIG. 5) | expression of αSMA and CollagenI in liver tissue sections (immunostaining) ([7]; vs vehicle, FIG. 5) | expression levels of the marker genes for fibrosing (COL1A1, COL3A1) in liver tissue ([7]; FIG. 6)
NC(COP(=O)(O)OCCCOC(=O)CCc1ccccc1Oc1ccc(-c2cc(-c3ccccc3)cc(-c3ccccc3)c2)cc1)C(=O)O (stereo not drawn) [Compound (III)] | decreased | decreased | decreased | decreased | decreased | decreased | decreased | decreased | decreased |  |  |  |  |  | 
CC(C)(C)c1cc(-c2ccc(Oc3ccccc3CCC(=O)OCCCOP(=O)(O)OCC(N)C(=O)O)cc2)cc(C(C)(C)C)c1 (stereo not drawn) [Compound (II)] | decreased | decreased | decreased | decreased | decreased | decreased | decreased | decreased | decreased | decreased | suppressed | small | larger area stained in red | suppressed | decreased
